From patent US10335409B2 (priority 2012, dated 2019)
Read-outs that look alike come from different tables or passages of the source.

Tests used:
Type in all cases: cell-based, hepatitis C virus
[1] = tested on: genotype 1b (Con1) wild type transient HCV replicon in Huh-7-derived cells; experiment: Transient-transfected HCV replicon EC50, genotype 1b wild type; details: Hepatitis C virus, 72 h, read-out: EC50 1B WT
[2] = tested on: genotype 1a (H77) stable HCV replicon in Huh-7-derived cells; experiment: Stable subgenomic HCV replicon EC50, genotype 1a (Renilla luciferase); details: Hepatitis C virus, stable replicon genotype 1a, 72 h, read-out: EC50 1A RLUC
How it was run: (§1)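 Compounds, three-fold diluted, were applied to Huh-7-derived cells harbouring luciferase replicons (genotype 1a H77, 1b Con1, 2a JFH-1, 4a ED43, with strain-specific adaptive mutations). Seventy-two hours later, intracellular replication was gauged by Renilla luciferase activity and EC50 derived by regression.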

[3] = tested on: genotype 4a (ED43) stable HCV replicon in Huh-7-derived cells; experiment: Stable subgenomic HCV replicon EC50, genotype 4a (Renilla luciferase); details: Hepatitis C virus, 72 h, read-out: EC50 4A RLUC
How it was run: as §1

[4] = tested on: genotype 3a (S52) stable HCV replicon in Huh-7-derived cells; experiment: Stable subgenomic HCV replicon EC50, genotype 3a (Renilla luciferase); details: Hepatitis C virus, 72 h, read-out: EC50 3A RLUC
[5] = tested on: genotype 3a (S52) wild type transient HCV replicon in Huh-7-derived cells; experiment: Transient-transfected HCV replicon EC50, genotype 3a wild type; details: Hepatitis C virus, 72 h, read-out: EC50 3A WT
[6] = tested on: genotype 1a NS3/4a protease inhibitor resistant variant R155K transient HCV replicon in Huh-7-derived cells; experiment: Transient-transfected HCV replicon EC50, genotype 1a R155K; details: Hepatitis C virus, 72 h, read-out: EC50 1A R155K, transient-transfected replicon genotype 1a R155K resistant variant, 72 h
[7] = tested on: genotype 2a (JFH-1) stable HCV replicon in Huh-7-derived cells; experiment: Stable subgenomic HCV replicon EC50, genotype 2a (Renilla luciferase); details: Hepatitis C virus, stable replicon genotype 2a, 72 h, read-out: EC50 2A RLUC
How it was run: as §1

[8] = tested on: genotype 1b (Con1) stable HCV replicon in Huh-7-derived cells; experiment: Stable subgenomic HCV replicon EC50, genotype 1b (Renilla luciferase); details: Hepatitis C virus, stable replicon genotype 1b, 72 h, read-out: EC50 1B RLUC
How it was run: as §1

[9] = tested on: genotype 1b NS3/4a protease inhibitor resistant variant D168A transient HCV replicon in Huh-7-derived cells; experiment: Transient-transfected HCV replicon EC50, genotype 1b D168A; details: Hepatitis C virus, 72 h, read-out: EC50 1B D168A, transient-transfected replicon genotype 1b D168A resistant variant, 72 h
[10] = tested on: genotype 1a (H77) wild type transient HCV replicon in Huh-7-derived cells; experiment: Transient-transfected HCV replicon EC50, genotype 1a wild type; details: Hepatitis C virus, 72 h, read-out: EC50 1A WT
[11] = transient-transfected replicon genotype 1b wild type
[12] = transient-transfected replicon genotype 3a wild type
[13] = transient-transfected replicon genotype 1a wild type

Row | Structure (SMILES) | EC50 [1] [nM] | EC50 [2] [nM] | EC50 [3] [nM] | EC50 [4] [nM] | EC50 [5] [nM] | EC50 [6] [nM] | EC50 [7] [nM] | EC50 [8] [nM] | EC50 [9] [nM] | EC50 [10] [nM] | EC50 [1, 11] [nM] | EC50 [5, 12] [nM] | EC50 [10, 13] [nM]
1 | COc1ccc2nc3c(nc2c1)O[C@H]1CN(C(=O)[C@H](C(C)(C)C)NC(=O)O[C@@H]2C[C@@H]4C[C@@H]4[C@H]2CCCCC3)[C@H](C(=O)N[C@]2(C(=O)NS(=O)(=O)C3(C)CC3)C[C@H]2CC(F)F)[C@@H]1C [Example 58, (1aS,2aR,6S,9S,10S,11R,23aR,23bS)-6-tert-butyl-N-[(1R,2S)-2-(2,2-difluoroethyl)-1-{[(1-methylcyclopropyl)sulfonyl]carbamoyl}cyclopropyl]-15-methoxy-10-methyl-4,7-dioxo-1a,2,2a,4,5,6,7,10,11,19,20,21,22,23,23a,23b-hexadecahydro-1H,9H-8,11-methanocyclopropa[4′,5′]cyclopenta[1′,2′:18,19][1,10,3,6]dioxadiazacyclononadecino[11,12-b]quinoxaline-9-carboxamide] | 14 | 12 | 12 | 134 | 38 | 18 | 12 | 9.7 | 23 | 12 | – | – | –
2 | CC[C@@H]1[C@@H]2CN(C(=O)[C@H](C(C)(C)C)NC(=O)O[C@@H]3C[C@@H]4C[C@@H]4[C@H]3CCCCC(F)(F)c3nc4ccc(OC)cc4nc3O2)[C@@H]1C(=O)N[C@]1(C(=O)NS(=O)(=O)C2(C)CC2)C[C@H]1C(F)F [Example 61, (1aS,2aR,6S,9S,10S,11R,23aR,23bS)-6-tert-butyl-N-[(1R,2R)-2-(difluoromethyl)-1-{[(1-methylcyclopropyl)sulfonyl]carbamoyl}cyclopropyl]-10-ethyl-19,19-difluoro-15-methoxy-4,7-dioxo-1a,2,2a,4,5,6,7,10,11,19,20,21,22,23,23a,23b-hexadecahydro-1H,9H-8,11-methanocyclopropa[4′,5′]cyclopenta[1′,2′:18,19][1,10,3,6]dioxadiazacyclononadecino[11,12-b]quinoxaline-9-carboxamide] | – | 13 | 11 | 28 | – | 10 | 8.7 | 10 | 6.7 | – | 9.3 | 13 | 12
3 | CC[C@@H]1[C@@H]2CN(C(=O)[C@H](C(C)(C)C)NC(=O)O[C@@]3(C)C[C@@H]3CCCCC(F)(F)c3nc4ccc(OC)cc4nc3O2)[C@@H]1C(=O)N[C@]1(C(=O)NS(=O)(=O)C2(C)CC2)C[C@H]1C(F)F [Example 64, (1aS,5S,8S,9S,10R,22aS)-5-tert-butyl-N-[(1R,2R)-2-(difluoromethyl)-1-{[(1-methylcyclopropyl)sulfonyl]carbamoyl}cyclopropyl]-9-ethyl-18,18-difluoro-14-methoxy-1a-methyl-3,6-dioxo-1,1a,3,4,5,6,9,10,18,19,20,21,22,22a-tetradecahydro-8H-7,10-methanocyclopropa[18,19][1,10,3,6]dioxadiazacyclononadecino[11,12-b]quinoxaline-8-carboxamide] | – | 100 | 34 | 671 | – | 50 | 48 | 38 | 104 | – | 17 | 256 | 37
4 | CCC[C@@H]1[C@@H]2CN(C(=O)[C@H](C(C)(C)C)NC(=O)O[C@@H]3C[C@H]3CCCCC(F)(F)c3nc4ccc(OC)cc4nc3O2)[C@@H]1C(=O)N[C@]1(C(=O)NS(=O)(=O)C2(C)CC2)C[C@H]1C(F)F [Example 65, (1aR,5S,8S,9S,10R,22aR)-5-tert-butyl-N-[(1R,2R)-2-(difluoromethyl)-1-{[(1-methylcyclopropyl)sulfonyl]carbamoyl}cyclopropyl]-18,18-difluoro-14-methoxy-3,6-dioxo-9-propyl-1,1a,3,4,5,6,9,10,18,19,20,21,22,22a-tetradecahydro-8H-7,10-methanocyclopropa[18,19][1,10,3,6]dioxadiazacyclononadecino[11,12-b]quinoxaline-8-carboxamide] | 6.4 | 12 | 8.1 | 30 | 17 | 8.1 | 7.7 | 8.4 | 11 | 9.4 | – | – | –
5 | CC[C@@H]1[C@@H]2CN(C(=O)[C@H](C(C)(C)C)NC(=O)O[C@@H]3C[C@H]3CCCCCc3nc4ccc(OC)cc4nc3O2)[C@@H]1C(=O)N[C@]1(C(=O)NS(=O)(=O)C2(C)CC2)C[C@H]1CC(F)F [Example 67, (1aR,5S,8S,9S,10R,22aR)-5-tert-butyl-N-[(1R,2S)-2-(2,2-difluoroethyl)-1-{[(1-methylcyclopropyl)sulfonyl]carbamoyl}cyclopropyl]-9-ethyl-14-methoxy-3,6-dioxo-1,1a,3,4,5,6,9,10,18,19,20,21,22,22a-tetradecahydro-8H-7,10-methanocyclopropa[18,19][1,10,3,6]dioxadiazacyclononadecino[11,12-b]quinoxaline-8-carboxamide] | – | 11 | 12 | 383 | – | 42 | 24 | 12 | 86 | – | 10 | 107 | 14
6 | COc1ccc2nc3c(nc2c1)O[C@H]1CN(C(=O)[C@H](C(C)(C)C)NC(=O)O[C@H]2CC4CC(C4)[C@@H]2CCCCC3)[C@H](C(=O)N[C@]2(C(=O)NS(=O)(=O)C3CC3)C[C@H]2C(F)F)[C@@H]1C [Example 72, (4aS,8S,11S,12S,13R,25aS)-8-tert-butyl-N-[(1R,2R)-1-[(cyclopropylsulfonyl)carbamoyl]-2-(difluoromethyl)cyclopropyl]-17-methoxy-12-methyl-6,9-dioxo-2,3,4,4a,6,7,8,9,12,13,21,22,23,24,25,25a-hexadecahydro-1H,11H-1,3:10,13-dimethanoquinoxalino[2,3-k][1,10,3,6]benzodioxadiazacyclononadecine-11-carboxamide] | – | 365 | 383 | 1820 | – | 227 | 740 | 300 | 687 | – | 165 | 642 | 600
7 | CC[C@@H]1[C@@H]2CN(C(=O)[C@H](C(C)(C)C)NC(=O)O[C@@H]3C[C@H]3CCCCCc3nc4ccc(OC)cc4nc3O2)[C@@H]1C(=O)N[C@]1(C(=O)NS(=O)(=O)C2(C)CC2)C[C@H]1C [Example 73, (1aR,5S,8S,9S,10R,22aR)-5-tert-butyl-9-ethyl-14-methoxy-N-[(1R,2R)-2-methyl-1-{[(1-methylcyclopropyl)sulfonyl]carbamoyl}cyclopropyl]-3,6-dioxo-1,1a,3,4,5,6,9,10,18,19,20,21,22,22a-tetradecahydro-8H-7,10-methanocyclopropa[18,19][1,10,3,6]dioxadiazacyclononadecino[11,12-b]quinoxaline-8-carboxamide] | – | 7.9 | 7.2 | 178 | – | 25 | 22 | 7.5 | 75 | – | 6.2 | 45 | 8.8
8 | CC[C@@H]1[C@@H]2CN(C(=O)[C@H](C(C)(C)C)NC(=O)O[C@@H]3C[C@H]3CCCCCc3nc4ccc(OC)cc4nc3O2)[C@@H]1C(=O)N[C@]1(C(=O)NS(=O)(=O)C2(F)CC2)C[C@H]1C(F)F [Example 74, (1aR,5S,8S,9S,10R,22aR)-5-tert-butyl-N-[(1R,2R)-2-(difluoromethyl)-1-{[(1-fluorocyclopropyl)sulfonyl]carbamoyl}cyclopropyl]-9-ethyl-14-methoxy-3,6-dioxo-1,1a,3,4,5,6,9,10,18,19,20,21,22,22a-tetradecahydro-8H-7,10-methanocyclopropa[18,19][1,10,3,6]dioxadiazacyclononadecino[11,12-b]quinoxaline-8-carboxamide] | – | 8 | 8.3 | 374 | – | 44 | 18 | 5 | 56 | – | 2.1 | 138 | 8.8
